The source made the active and inactive calls.

As usually defined, the MBC is the smallest concentration meeting the test's criterion for killing. What is called MIC is the smallest concentration in the dilution series that meets the test's criterion for growth inhibition. A high value points to a need for much substance. For orientation: MFC means the smallest concentration meeting the test's criterion for killing the fungus.

In data set [1] the test system is Candida albicans. Nature of the data set: Antifungal activity against Candida albicans NCIM 3074 at 500 ug/disk after 24 hr by disk diffusion method. In kind it is functional. Particulars: NCIM 3074, 24 h, read-out: IZ. On the technique in general: In agar diffusion tests the substance spreads into inoculated agar from a disc or well.
Data set [2] deals with Candida albicans. Nature of the data set: Inhibition of Candida albicans phospholipase at 124.96 uM after 30 min.
The nature of data set [3]: Cytotoxicity against Homo sapiens (human) erythrocytes assessed as hemolytic activity at 124.96 uM after 1 hr. The format is cell-based, Erythrocyte. Particulars: read-out: Activity.
Data set [4] has as its system Escherichia coli. As to the kind of experiment: Antibacterial activity against Escherichia coli NCIM 2065 at 500 ug/disk after 24 hr by disk diffusion method. In kind it is functional. Particulars: NCIM 2065, 24 h, read-out: IZ.
Data set [5] has as its system Nakaseomyces glabratus. Nature of the data set: Antifungal activity against Candida glabrata NCIM 3236 at 500 ug/disk after 24 hr by disk diffusion method. The format is functional. Particulars: NCIM 3236, 24 h, read-out: IZ.
Data set [6] relates to Staphylococcus aureus. Nature of the data set: Antibacterial activity against Staphylococcus aureus NCIM 5021 at 500 ug/disc after 24 hr by disk diffusion method. In kind it is functional. Particulars: NCIM 5021, 24 h, read-out: IZ.
Data set [7] in a line: Cytotoxicity against Homo sapiens (human) erythrocytes assessed as hemolytic activity at 15.62 uM after 1 hr. Particulars: read-out: Activity. In kind it is cell-based, Erythrocyte.
The subject of data set [8] is Staphylococcus aureus. As to the kind of experiment: Bacteriostatic activity against Staphylococcus aureus NCIM 5021 at 20 ug/disc after 24 hr by disk diffusion method. In kind it is functional, organism-based.
The test system of data set [9] is Escherichia coli. Nature of the data set: Bacteriostatic activity against Escherichia coli NCIM 2065 at 20 ug/disk after 24 hr by disk diffusion method. In kind it is functional, organism-based.
The test system of data set [10] is Candida albicans. Nature of the data set: Fungistatic activity against Candida albicans NCIM 3074 at 25 ug/disk after 24 hr by disk diffusion method. In kind it is functional, organism-based.
In data set [11] the test system is Nakaseomyces glabratus. As to the kind of experiment: Fungistatic activity against Candida glabrata NCIM 3236 at 25 ug/disk after 24 hr by disk diffusion method. The format is functional, organism-based.
In data set [12] the test system is Candida albicans. Nature of the data set: Fungistatic activity against Candida albicans NCIM 3074 at 500 ug/disk after 24 hr by disk diffusion method. The format is functional, organism-based.
Data set [13] concerns Nakaseomyces glabratus. As to the kind of experiment: Fungistatic activity against Candida glabrata NCIM 3236 at 500 ug/disk after 24 hr by disk diffusion method. In kind it is functional, organism-based.
Data set [14] concerns Escherichia coli. Nature of the data set: Bacteriostatic activity against Escherichia coli NCIM 2065 at 500 ug/disk after 24 hr by disk diffusion method. In kind it is functional, organism-based.
Data set [15] concerns Staphylococcus aureus. Nature of the data set: Bacteriostatic activity against Staphylococcus aureus NCIM 5021 at 500 ug/disc after 24 hr by disk diffusion method. In kind it is functional, organism-based.
The subject of data set [16] is Staphylococcus aureus. Nature of the data set: Bactericidal activity against Staphylococcus aureus NCIM 5021 after 24 hr by NCCLS broth microdilution method. Particulars: NCIM 5021, 24 h. In kind it is functional.
Data set [17] has as its system Staphylococcus aureus. As to the kind of experiment: Antibacterial activity against Staphylococcus aureus NCIM 5021 after 24 hr by NCCLS broth microdilution method. The format is functional. Particulars: NCIM 5021, 24 h. Background: Dilution methods test growth across graded concentrations, often in twofold steps.
Data set [18] relates to Candida albicans. As to the kind of experiment: Fungicidal activity against Candida albicans NCIM 3074 after 24 hr by NCCLS broth microdilution method. The format is functional. Particulars: NCIM 3074, 24 h.
Data set [19] has as its system Candida albicans. Nature of the data set: Antifungal activity against Candida albicans NCIM 3074 after 24 hr by NCCLS broth microdilution method. In kind it is functional. Particulars: NCIM 3074, 24 h.
The subject of data set [20] is Candida albicans. Nature of the data set: Antifungal activity against Candida albicans NCIM 3074 assessed as inhibition of germ tube formation after 3 to 4 hr. In kind it is functional.

Take `CCCCCCCCCCn1ccc(=N)cc1`: the zone of inhibition at 500 µg/disc turned out to be 23.5 mm in data set [1], 29 mm in [4], 26 mm in [5] and 28 mm in data set [6]. The inhibition entry in [2] is “Active”. For the same compound, the hemolysis at 1 h, 124.96 µM in data set [3] was determined as 97.4%. Besides, the hemolysis at 1 h, 15.62 µM in data set [7] came out at 0.57%.

As to `C[C@@H]1[C@H](O)[C@@H](C)/C=C/C=C/C=C/C=C/C=C/C=C/C=C/[C@H](O[C@@H]2O[C@H](C)[C@@H](O)[C@H](N)[C@@H]2O)C[C@@H]2O[C@](O)(C[C@@H](O)C[C@@H](O)[C@H](O)CC[C@@H](O)C[C@@H](O)CC(=O)O[C@H]1C)C[C@H](O)[C@H]2C(=O)O` [AMPHOTERICIN B], the values for the zone of inhibition at 500 µg/disc in [1] and in data set [5] were 10 mm and 14 mm, respectively. The outcome in data set [8] and in [9] was inactive.

For `CN[C@@H]1[C@H](O[C@H]2[C@H](O[C@H]3[C@H](O)[C@@H](O)[C@H](N=C(N)N)[C@@H](O)[C@@H]3N=C(N)N)O[C@@H](C)[C@]2(O)C=O)O[C@@H](CO)[C@H](O)[C@H]1O` [STREPTOMYCIN], the zone of inhibition at 500 µg/disc is 32 mm in data set [4] and 30 mm in data set [6]. Besides, the outcome in [10] and in [11] was inactive.

Consider `CCC[n+]1ccc(N)cc1`, for which the outcome in data set [12] and in data set [13] was inactive. For the same compound, the result in data set [14] and in data set [15] was Active.

For `CCCCCCCCCCCCCCCC[n+]1ccc(N)cc1.[Br-]`, the zone of inhibition at 500 µg/disc stood at 26.5 mm in [1], 34 mm in data set [4], 30 mm in [5] and 36 mm in data set [6]. Further, the MBC in [16] is 15.6 µM. The values for the MIC in [17] and in data set [19] were under 15.6 µM and 15.6 µM, respectively. Also, in data set [18], the minimum fungicidal concentration (MFC) worked out at 31.2 µM. Moreover, the INH in [20] turned out to be 15.62 µM.

Take `CCn1ccc(=N)cc1`: the outcome in data set [12], in [13], in data set [14] and in data set [15] was inactive.

With `CCCC[n+]1ccc(N)cc1`, the outcome in data set [12] and in [13] was inactive. In addition, the outcome in data set [14] and in data set [15] was Active.

As for `CCCCCCCCCCCCCC[n+]1ccc(N)cc1`, the zone of inhibition at 500 µg/disc in data set [1] was 9 mm; in data set [4], 6.5 mm; in [5], 8.5 mm; in data set [6], 6 mm.

With `CCCCCCCCn1ccc(=N)cc1`, the zone of inhibition at 500 µg/disc in [1] stood at 14 mm; in data set [4], 27 mm; in data set [5], 22 mm; in data set [6], 25 mm.

For the compound `CCCCC[n+]1ccc(N)cc1`, the result in data set [12] was inactive. For the same compound, the outcome in [13] was Active. Besides, the zone of inhibition at 500 µg/disc in [4] was 16 mm; in data set [6], 14 mm.

As for `CCCCCCn1ccc(=N)cc1`, the result in [12] was Active. Further, the zone of inhibition at 500 µg/disc in data set [4] turned out to be 18 mm; in data set [5], 10 mm; in [6], 21 mm.

Regarding `CCCCCCC[n+]1ccc(N)cc1`, the zone of inhibition at 500 µg/disc in [1] was 10.5 mm; in data set [4], 26 mm; in [5] it was 16 mm; in [6], 25 mm.

For the origin of these results see ChEMBL document CHEMBL3045999, “Synthesis, characterization and antimicrobial activity of 4-amino-1-alkyl pyridinium salts” (Med Chem Res, 2012).
